In patent US10159725B2, “Composition of tumor-associated peptides and related anti-cancer vaccine for the treatment of gastric cancer and other cancers” (priority 2010, dated 2018):

Legend:
CD8+ T cells = assay: In vitro priming of CD8+ T cells with pMHC/anti-CD28 coated beads, multimer readout (in vitro immunogenicity); assay type: cell-based, human; details: healthy HLA-A*24 donors, three stimulations; for Positive wells/wells tested [%]: at least 24 wells evaluable per peptide; for Positive donors/donors tested [%]: at least two donors evaluable per peptide
Description: In order to perform in vitro stimulations by artificial antigen presenting cells (aAPC) loaded with peptide-MHC complex (pMHC) and anti-CD28 antibody, we first isolated CD8 T cells from fresh HLA-A*24 leukapheresis products of healthy donors obtained from the Blood Bank Tuebingen.
Isolation of CD8+ lymphocytes was performed by positive selection using CD8 MicroBeads (Miltenyi Biotec, Bergisch-Gladbach, Germany).
Stimulations were initiated in 96-well plates by co-incubating 1×10^6 CD8+ T cells with 2×10^5 washed coated beads in 200 μl TCM supplemented with 5 ng/ml IL-12 (PromoCell) for 3-4 days at 37° C. Half of the medium was then exchanged by fresh TCM supplemented with 80 U/ml IL-2 and incubating was continued for 3-4 days at 37° C. This stimulation cycle was performed for a total of three times. […] For analysis, a BD LSRII SORP cytometer equipped with appropriate lasers and filters was used. Peptide specific cells were calculated as percentage of total CD8+ cells. Evaluation of multimeric analysis was done using the FLOWJO software (Tree Star, Oregon, USA). In vitro priming of specific multimer+ CD8+ lymphocytes was detected by appropriate gating and by comparing to negative control stimulations.

[1] = tested on: HLA-DR broad antigens (HLA-DR1 to DR7); assay: ProImmune REVEAL MHC:peptide in vitro binding assay; parameters: species or system human; details: relative to pass/fail control
Description: The ProImmune REVEAL™ technology employs in vitro HLA-DR assembly assays to determine the on-rates for the MHC:peptide complex as one major determinant of the binding constant of individual peptides. The assay was performed by ProImmune (Oxford, UK). At a fixed time point, the amount of intact MHC:peptide complexes is measured and compared with the amount for a pass/fail control (relative weak binder). A strong, promiscuous HLA-DR binder is included as positive control. Values indicate amount of binding for the individual peptides and HLA-DR molecules relative to the pass/fail control.
In this assay, binding was compared to that of a pass/fail control binder, and to a positive control peptide for each HLA-DR antigen.

[2] = tested on: anti-survivin T-cell response; assay: T-cell response in vaccinated prostate carcinoma patients (IFN-g ELISPOT, +/-ICS); assay type: in vivo, human

## SYIDVLPEF (listed as Homo sapiens) [MET-006]
CD8+ T cells
  Positive wells/wells tested [%]: 22%
  Positive donors/donors tested [%]: 63%

## RFLSGIINF (listed as Homo sapiens) [NUF2-002]
CD8+ T cells
  Positive wells/wells tested [%]: 4%
  Positive donors/donors tested [%]: 50%

## LYQILQGIVF (listed as Homo sapiens) [CDC2-001]
CD8+ T cells
  Positive wells/wells tested [%]: 28%
  Positive donors/donors tested [%]: 88%

## TLGEFLKLDRERAKN (listed as Homo sapiens) [IMA-BIR-002]
[1]
  in vitro binding to HLA-DR (in words): promiscuous binding of IMA-BIR-002 to HLA-DR1, 3, 4 and 11
[2]; among the 16 reacting patients of 19
  patients with induction of an anti-survivin T-cell response upon vaccination: 12 patients
[2]; of the 19 patients vaccinated
  patients who reacted to the peptide (IFN-g ELISPOT, +/-ICS): 16 patients

## NYLLYVSNF (listed as Homo sapiens) [MST1R-001]
CD8+ T cells
  Positive wells/wells tested [%]: 14%
  Positive donors/donors tested [%]: 50%

## VYIEKNDKL (listed as Homo sapiens) [ERBB3-001]
CD8+ T cells
  Positive wells/wells tested [%]: 15%
  Positive donors/donors tested [%]: 83%

## FYISPVNKL (listed as Homo sapiens) [AVL9-001]
CD8+ T cells
  Positive wells/wells tested [%]: 50%
  Positive donors/donors tested [%]: 100%

## AYLVYTDRL (listed as Homo sapiens) [PPAP2C-001]
CD8+ T cells
  Positive wells/wells tested [%]: 54%
  Positive donors/donors tested [%]: 100%

## SYIIDPLNL (listed as Homo sapiens) [PROM1-001]
CD8+ T cells
  Positive wells/wells tested [%]: 26%
  Positive donors/donors tested [%]: 83%

## NYLPFIMEL (listed as Homo sapiens) [UCHL5-001]
CD8+ T cells
  Positive wells/wells tested [%]: 14%
  Positive donors/donors tested [%]: 75%

## SYNPLWLRI (listed as Homo sapiens) [ASPM-002]
CD8+ T cells
  Positive wells/wells tested [%]: 31%
  Positive donors/donors tested [%]: 63%

## VYGIRLEHF (listed as Homo sapiens) [NUF2-001]
CD8+ T cells
  Positive wells/wells tested [%]: 25%
  Positive donors/donors tested [%]: 100%

## VWSDVTPLIF (VWSDVTPLTF; listed as Homo sapiens) [MMP11-001]
CD8+ T cells
  Positive wells/wells tested [%]: 11%
  Positive donors/donors tested [%]: 33%

## YYNAAGFNKL (listed as Homo sapiens) [UQCRB-001]
CD8+ T cells
  Positive wells/wells tested [%]: 38%
  Positive donors/donors tested [%]: 100%

## HYKPTPLYF (listed as Homo sapiens) [SMC4-001]
CD8+ T cells
  Positive wells/wells tested [%]: 9%
  Positive donors/donors tested [%]: 75%

## TYGNLLDYL (listed as Homo sapiens) [ABL1-001]
CD8+ T cells
  Positive wells/wells tested [%]: 13%
  Positive donors/donors tested [%]: 50%
